Type in all cases: cell-based
The target in one experiment is hGcgR (Homo sapiens, UniProt P47871). In words: Functional cAMP activation in the presence of 0.1% casein (no HSA). Conditions: read-out: Relative cAMP EC50, hGcgR.
The next experiment deals with human GcgR (Homo sapiens, UniProt P47871). In words: Functional cAMP activity in the presence of 1% HSA. To be noted: read-out: cAMP Rel EC50, hGcgR.
The target in experiment [1] is T1, hGLP-1R (Homo sapiens, UniProt P43220). In words: Functional cAMP activity in the presence of 1% HSA. Conditions: read-out: cAMP Rel EC50, hGLP-1R.
Experiment [2] addresses T1, hGLP-1R. Description: Functional cAMP activation in the presence of 0.1% casein (no HSA). To be noted: read-out: Relative cAMP EC50, hGLP-1R.
The target of experiment [3] is T2, hGIPR (Homo sapiens, UniProt P48546).
T2 sequence (P48546 22-466): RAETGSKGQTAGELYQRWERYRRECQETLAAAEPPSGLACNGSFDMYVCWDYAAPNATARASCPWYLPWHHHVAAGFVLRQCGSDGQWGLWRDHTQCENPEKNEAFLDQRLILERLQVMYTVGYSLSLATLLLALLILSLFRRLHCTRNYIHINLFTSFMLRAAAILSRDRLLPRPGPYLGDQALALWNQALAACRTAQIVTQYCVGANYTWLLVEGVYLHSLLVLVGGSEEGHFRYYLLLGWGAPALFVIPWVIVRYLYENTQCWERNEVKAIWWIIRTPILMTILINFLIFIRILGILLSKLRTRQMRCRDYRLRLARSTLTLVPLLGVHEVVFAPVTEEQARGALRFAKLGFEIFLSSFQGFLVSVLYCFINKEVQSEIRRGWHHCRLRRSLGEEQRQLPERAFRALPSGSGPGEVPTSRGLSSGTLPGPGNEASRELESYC
The experiment is described as above. Conditions: read-out: Relative cAMP EC50, hGIPR.

Experiment [4] concerns the target T2, hGIPR. In words: Functional cAMP activity in the presence of 1% HSA. Conditions: read-out: cAMP Rel EC50, hGIPR.
The mark [5] stands for this setting: in the presence of 0.1% casein (no HSA), geometric mean.
Where [6] appears, read: 0.1% casein, no HSA, geometric mean.

The term EC50 denotes the concentration needed to bring the measured effect to its halfway point.

Where two headings read alike, the source gives them in different places. Starred links: 1 amine or outer side, 2 acyl side, 3 side chain; linkers in the order of their positions; H or OH if unused. Non-standard residues stand in square brackets, D forms with d. Groups on a side chain read outwards from the residue. No end group written: not given here. *: point of attachment. C18 diacid = O=C(O)CCCCCCCCCCCCCCCCC(=O)*; αMePhe(2-F) = C[C@](N)(Cc1ccccc1F)C(=O)O; γGlu = O=C(O)[C@H](CCC(=O)[*:2])N[*:1]; αMe4Pal = C[C@](N)(Cc1ccncc1)C(=O)O; αMeY = C[C@](N)(Cc1ccc(O)cc1)C(=O)O; αMeF = C[C@](N)(Cc1ccccc1)C(=O)O; 4Pal = N[C@@H](Cc1ccncc1)C(=O)O; αMeL = CC(C)C[C@](C)(N)C(=O)O; αMeS = C[C@](N)(CO)C(=O)O; Orn = NCCC[C@H](N)C(=O)O; AEEA = NCCOCCOCC(=O)O; Aib = CC(C)(N)C(=O)O
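Throughout, for Relative cAMP EC50, hGIPR: intracellular cAMP rise after 30 min at 37 °C read by HTRF against a standard curve, scaled between buffer alone (0%) and top control ligand concentration (100%), four-parameter fit.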
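Throughout, for Relative cAMP EC50, hGLP-1R: intracellular cAMP rise after 30 min at 37 °C read by HTRF, normalized between buffer only (0%) and maximal control ligand (100%), four-parameter variable-slope fit.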
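Throughout, for Relative cAMP EC50, hGcgR: intracellular cAMP rise after 30 min at 37 °C, read by HTRF against a cAMP standard curve, scaled from buffer only (0%) to maximal control ligand response (100%).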

T1 sequence (P43220 24-463): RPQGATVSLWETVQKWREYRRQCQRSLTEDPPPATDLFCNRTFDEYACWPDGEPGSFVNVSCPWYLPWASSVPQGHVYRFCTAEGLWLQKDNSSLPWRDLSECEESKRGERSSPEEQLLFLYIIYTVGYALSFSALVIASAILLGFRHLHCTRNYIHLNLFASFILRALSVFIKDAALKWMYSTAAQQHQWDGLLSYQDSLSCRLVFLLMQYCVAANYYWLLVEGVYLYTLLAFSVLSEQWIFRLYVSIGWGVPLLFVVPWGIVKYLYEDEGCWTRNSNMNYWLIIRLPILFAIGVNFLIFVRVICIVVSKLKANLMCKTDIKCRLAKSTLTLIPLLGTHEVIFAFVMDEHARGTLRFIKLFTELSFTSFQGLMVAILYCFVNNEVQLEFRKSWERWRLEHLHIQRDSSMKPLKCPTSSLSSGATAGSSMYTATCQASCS
Sequence of hGcgR (P47871 26-477): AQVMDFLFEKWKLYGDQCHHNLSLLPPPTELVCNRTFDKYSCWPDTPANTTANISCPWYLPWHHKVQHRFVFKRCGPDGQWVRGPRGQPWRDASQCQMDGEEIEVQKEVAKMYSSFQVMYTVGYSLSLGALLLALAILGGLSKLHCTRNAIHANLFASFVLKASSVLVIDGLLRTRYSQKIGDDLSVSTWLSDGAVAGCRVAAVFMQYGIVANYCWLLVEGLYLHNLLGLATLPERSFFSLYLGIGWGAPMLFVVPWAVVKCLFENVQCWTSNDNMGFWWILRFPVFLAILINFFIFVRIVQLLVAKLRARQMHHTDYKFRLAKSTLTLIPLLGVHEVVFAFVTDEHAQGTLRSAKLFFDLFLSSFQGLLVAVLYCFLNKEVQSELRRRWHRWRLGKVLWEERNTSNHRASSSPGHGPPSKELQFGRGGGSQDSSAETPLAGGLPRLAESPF
Sequence of human GcgR (P47871 26-477): as above

For the compound “H-Y[Aib]Q[dA]T[αMePhe(2-F)]TSD[4Pal][αMeS]I[αMeL]LD[Orn]K([AEEA-γGlu-C18 diacid])AQ[αMe4Pal]EFI[dE][αMeY]LIEGGPSSGEPPPSGTGE-NH2 [Example 766]”, the EC50 on hGcgR came to 0.689 nM; on human GcgR, 65.7 nM; at hGLP-1R [1] it was 32.5 nM; at hGLP-1R [2], 0.273 nM; at hGIPR [3] it was 0.0323 nM; at hGIPR [4] it was 14.1 nM.

On to “H-Y[Aib]QGT[αMeF]TSD[4Pal][αMeS]I[αMeL]LD[Orn]K([γGlu-γGlu-C18 diacid])AQ[αMe4Pal]EFI[dE][αMeY]LIEGGPSSGAPPPSGE-NH2 [Example 1170]”, for which the 50% effective concentration (EC50) at hGcgR (setting [5]) amounted to 2.43 nM; on human GcgR, 249 nM; on hGLP-1R [1], 50.2 nM; at hGLP-1R [2] (setting [5]), 0.395 nM; at hGIPR [3] (setting [5]), 0.00783 nM; on hGIPR [4], 0.663 nM.

Consider “H-Y[Aib]QGT[αMePhe(2-F)]TSD[4Pal][αMeS]I[αMeL]LD[Orn]K([γGlu-γGlu-C18 diacid])AQ[Aib][Orn]FI[dE][αMeY]LAEGGPSSGEPPPSGSEE-NH2 [Example 589]”, for which the EC50 on hGcgR was determined as 4.11 nM; on human GcgR it was 289 nM; on hGLP-1R [1], 44.4 nM; on hGLP-1R [2], 0.713 nM; at hGIPR [3] it was 0.0672 nM; at hGIPR [4], 3.83 nM.

Turning to “H-Y[Aib]QGT[αMePhe(2-F)]TSD[4Pal]SILLD[Orn]K([γGlu-γGlu-C18 diacid])AQ[Aib][Orn]FIEYLQEGGPSSGAPPPSGTEE-NH2 [Example 582]”, the EC50 at hGcgR came out at 10.5 nM; on human GcgR, 1060 nM; on hGLP-1R [1], 35.5 nM; on hGLP-1R [2], 0.298 nM; on hGIPR [3], 0.103 nM; at hGIPR [4], 10.8 nM.

For “Y[Aib]QGT[αMePhe(2-F)]TSD[4Pal][αMeS]I[αMeL]LD[Orn]K([γGlu-γGlu-C18 diacid])AQ[Aib][Orn]FI[dE][αMeY]LAEGGPSSGEPPPSGTEE-NH2 [Example 571]”, the EC50 turned out to be 3.27 nM on hGcgR; 243 nM at human GcgR; 42.7 nM at hGLP-1R [1]; 0.603 nM on hGLP-1R [2]; 0.0746 nM at hGIPR [3]; 4.23 nM on hGIPR [4].

With `CC[C@H](C)[C@H](NC(=O)[C@H](Cc1ccccc1)NC(=O)[C@H](C)NC(=O)C(C)(C)NC(=O)[C@H](CCC(N)=O)NC(=O)[C@H](C)NC(=O)[C@H](CCCCNC(=O)COCCOCCNC(=O)CC[C@H](NC(=O)CCCCCCCCCCCCCCCCC(=O)O)C(=O)O)NC(=O)[C@H](CCCCN)NC(=O)[C@H](CC(=O)O)NC(=O)[C@H](CC(C)C)NC(=O)[C@](C)(CC(C)C)NC(=O)[C@H](CCCN)NC(=O)[C@H](CO)NC(=O)[C@H](Cc1ccccc1)NC(=O)[C@H](CC(=O)O)NC(=O)[C@H](CO)NC(=O)[C@@H](NC(=O)[C@H](Cc1ccccc1)NC(=O)[C@@H](NC(=O)CNC(=O)[C@H](CCC(N)=O)NC(=O)C(C)(C)NC(=O)[C@@H](N)Cc1ccc(O)cc1)[C@@H](C)O)[C@@H](C)O)C(=O)N[C@@H](CCC(=O)O)C(=O)N[C@@H](Cc1ccc(O)cc1)C(=O)N[C@@H](CC(C)C)C(=O)N[C@@H](CC(C)C)C(=O)N[C@@H](CCC(=O)O)C(=O)N[C@H](C)C(=O)NCC(=O)N[C@@H](Cc1ccncc1)C(=O)N[C@@H](CO)C(=O)N[C@@H](CO)C(=O)NCC(=O)N[C@@H](C)C(=O)N1CCC[C@H]1C(=O)N1CCC[C@H]1C(=O)N1CCC[C@H]1C(=O)N[C@@H](CO)C(=O)NCC(=O)N[C@@H](CCC(=O)O)C(N)=O` [Example 252], the EC50 was found to be 2.61 nM on hGcgR (setting [5]); 528 nM at human GcgR; 504 nM at hGLP-1R [1]; 3.54 nM on hGLP-1R [2] (setting [5]); 0.147 nM at hGIPR [3] (setting [5]); 24.8 nM on hGIPR [4].

For the compound “H-Y[Aib]QGT[αMePhe(2-F)]TSD[4Pal]SILLDKK([AEEA-γGlu-C18 diacid])AQ[Aib]AFIE[αMeY]LEEGGPSSGAPPPSGTGE-NH2 [Example 669]”, the EC50 at hGcgR was found to be 1.76 nM; at human GcgR, 173 nM; at hGLP-1R [1], 27.3 nM; on hGLP-1R [2] it was 0.27 nM; on hGIPR [3] it was 0.0145 nM; at hGIPR [4], 1.41 nM.

Turning to “Y[Aib]QGT[αMePhe(2-F)]TSD[4Pal]SI[αMeL]LD[Orn]K([AEEA-γGlu-C18 diacid])AQ[αMe4Pal][Orn]FI[dE][αMeY]LIEGGPSSGAPPPEGGGE-NH2 [Example 758]”, the half-maximal effective concentration (EC50) on hGcgR was 3.99 nM; at human GcgR it was 388 nM; on hGLP-1R [1], 31.3 nM; on hGLP-1R [2], 0.195 nM; on hGIPR [3] it was 0.0212 nM; at hGIPR [4], 1.59 nM.

Regarding “H-Y[Aib]QGT[αMePhe(2-F)]TSD[4Pal]SI[αMeL]LD[Orn]K([AEEA-γGlu-C18 diacid])AQ[αMe4Pal]EFI[dE][αMeY]LQEGGPSSGAPPPSGS-NH2 [Example 643]”, the EC50 on hGcgR came out at 16 nM; on human GcgR, 1170 nM; at hGLP-1R [1], 60.1 nM; on hGLP-1R [2] it was 0.741 nM; at hGIPR [3], 0.0223 nM; on hGIPR [4], 1.61 nM.

Regarding “H-Y[Aib]QGT[αMePhe(2-F)]TSD[4Pal][αMeS]I[αMeL]LD[Orn]K([AEEA-γGlu-C18 diacid])AQ[αMe4Pal]EFI[dE][αMeY]LIEGGPSSGAPPPEGGGEE-NH2 [Example 1216]”, the EC50 was 1.83 nM at hGcgR (setting [6]); 225 nM on human GcgR; 66.9 nM at hGLP-1R [1]; 0.65 nM at hGLP-1R [2] (setting [6]); 0.00921 nM at hGIPR [3] (setting [6]); 0.914 nM at hGIPR [4].

Take “H-Y[Aib]QGT[αMePhe(2-F)]TSD[4Pal][αMeS]I[αMeL]LD[Orn]K([AEEA-γGlu-C18 diacid])AQ[αMe4Pal]EFI[dE][αMeY]LIEGGPSSGEPPPTGE-NH2 [Example 1143]”: the half-maximal effective concentration (EC50) at hGcgR (setting [5]) is 1.42 nM; at human GcgR, 182 nM; at hGLP-1R [1], 49.6 nM; at hGLP-1R [2] (setting [5]), 0.381 nM; on hGIPR [3] (setting [5]), 0.0087 nM; on hGIPR [4] it was 0.751 nM.

As to `CC[C@H](C)[C@H](NC(=O)[C@H](Cc1ccccc1)NC(=O)[C@H](C)NC(=O)[C@](C)(Cc1ccncc1)NC(=O)[C@H](CCC(N)=O)NC(=O)[C@H](C)NC(=O)[C@H](CCCCNC(=O)COCCOCCNC(=O)CC[C@H](NC(=O)CC[C@H](NC(=O)CCCCCCCCCCCCCCCCC(=O)O)C(=O)O)C(=O)O)NC(=O)[C@H](CCCN)NC(=O)[C@H](CC(=O)O)NC(=O)[C@H](CC(C)C)NC(=O)[C@](C)(CC(C)C)NC(=O)[C@H](CCC(N)=O)NC(=O)[C@H](CO)NC(=O)[C@H](Cc1ccncc1)NC(=O)[C@H](CC(=O)O)NC(=O)[C@H](CO)NC(=O)[C@@H](NC(=O)[C@H](Cc1ccccc1)NC(=O)[C@@H](NC(=O)CNC(=O)[C@H](CCC(N)=O)NC(=O)C(C)(C)NC(=O)[C@@H](N)Cc1ccc(O)cc1)[C@@H](C)O)[C@@H](C)O)C(=O)N[C@@H](CCC(=O)O)C(=O)N[C@@H](Cc1ccc(O)cc1)C(=O)N[C@@H](CC(C)C)C(=O)N[C@H](C(=O)N[C@@H](CCC(=O)O)C(=O)N[C@H](C)C(=O)NCC(=O)N1CCC[C@H]1C(=O)N[C@@H](CO)C(=O)N[C@@H](CO)C(=O)NCC(=O)N[C@@H](C)C(=O)N1CCC[C@H]1C(=O)N1CCC[C@H]1C(=O)N1CCC[C@H]1C(=O)N[C@@H](CCC(=O)O)C(=O)NCC(=O)N[C@@H](CO)C(N)=O)[C@@H](C)CC` [Example 1020], the EC50 at hGcgR (setting [5]) is 5.87 nM; at human GcgR, 478 nM; on hGLP-1R [1], 146 nM; on hGLP-1R [2] (setting [5]), 2.29 nM; at hGIPR [3] (setting [5]), 0.309 nM; on hGIPR [4] it was 27.3 nM.
